The values that follow come from US20250346890A1, “LEUKEMIA TREATMENT” (Deutsches Krebsforschungszentrum, priority 2019, published 2025).

One data set has as its system Smad1. Nature of the data set: Western blot of pSmad1 and tSmad1 in THP-1 cells. The format is cell-based, human. Conditions: THP-1 cells treated with RSPO2 siRNA plus inhibitor. On the procedure:
Cultured cells were rinsed with cold PBS and lysed in Triton lysis buffer ([…] Tris-Cl, pH 7.5, 1% Triton X-100, 150 mM NaCl, 1 mM EDTA, 1 mM EGTA, 1 mM β-glycerophosphate, 1 mM Na3 VO4) or RIPA buffer with complete Protease Inhibitor Cocktail (Roche 11697498001). Lysates were mixed with Laemmli buffer with β-mercaptoethanol and boiled at 95° C. for 5 min to prepare SDS-PAGE samples. Western blot images were acquired with SuperSignal West pico ECL (ThermoFisher 34580) or Clarity Western ECL (Biorad 1705061) using LAS-3000 system (FujiFilm). Quantification of blots was done using ImageJ software.
(§1) THP-1 cells were treated with 0.3, 1.0 and 3.0 μg ml^−1 goat polyclonal anti-RSPO2 antibodies (R&D systems AF3266) or goat polyclonal GFP antibodies (ABIN 100085). After 48 hours, medium was replaced including fresh antibodies—and incubated another 24 hours. Western blot analysis and FACS analyses were performed as discussed above.
On the technique in general: Immunoblotting shows a protein as a band on a membrane.

Data set [1] has as its system THP-1 cells. In words: Monocyte-macrophage differentiation of THP-1 cells (FACS / qRT-PCR of CD14, CD11B). The format is cell-based, human. On the procedure:
Cultured cells were lysed in Macherey-Nagel RAI buffer containing 1% β-mercaptoethanol and total RNAs were isolated using NucleoSpin RNA isolation kit (Macherey-Nagel 740955). Reverse transcription and PCR amplification were performed. Primers used in this study are listed in Supplementary Table 1. Graphs show relative gene expressions to GAPDH. […] Statistical analyses were performed using PRISM7 software with unpaired t-test or one-way ANOVA test.
For analyzing macrophage differentiation of THP-1, cells were harvested, pelleted and resuspended in ice-cold blocking buffer (PBS supplemented with 1% BSA and 0.1% NaN3). Cells were treated with Fc Receptor Binding Inhibitor as recommended by the manufacturer (eBioscience 14916173) and stained directly with FITC/APC-conjugated antibodies diluted in blocking buffer or with non-conjugated primary antibodies followed by fluorochrome-labeled secondary antibodies. Isotype-matched antibodies were used as controls. Dead cells were excluded by counterstaining with propidium iodide. For analyzing apoptosis of THP-1, cells were fixed in 4% PFA, permeabilized by MeOH and blocked with PBS supplemented with 1% BSA and 0.1% Tween-20. Cells were stained with anti-active Caspase-3 antibody and fluorochrome-labeled secondary antibody. FACS Samples were analyzed with FACSCalibur or FACSCanto (BD Biosciences). 10,000 events per samples were acquired, and results were processed with Cell Quest or FACSDiva software (BD Biosciences). For BMP4 stimulation, cells were treated with 5 and 25 ng ml^−1 recombinant human BMP4 protein (R&D systems 314-BP). 100, 300 and 1000 nM LDN […] (Tocris 6053) were used for rescue assay. For the THP-1 cell number quantification and differentiation validation in vivo, bone marrow cells were harvested from tibias of NSG mice and red blood cells were removed by ACK Lysing Buffer (Gibco A1049201). Cells were stained and analyzed as above. Here, 50,000 PI-negative events per samples were acquired.
as §1
(§2) The sequences of shRSPO2 and shControl (Table 1) were synthesized, inserted into the transfer plasmid Tet-pLKO-puro (Addgene 21915) and validated by sequencing. Lentivirus was produced with the 3rd generation lentiviral system according to the protocol available at the Trono lab as described (www.epfl.ch/labs/tronolab/). THP-1 cells were infected with lentivirus with 8 μg ml^−1 Polybrene (Sigma TR-1003) and selected with 0.5 μg ml^−1 puromycin (Calbiochem 540411). Single cell clones were obtained by limiting dilutions. The shRNA expression of clones was validated by monitoring RSPO2 expression after doxycycline treatment (1.0 μg ml^−1) for 3 days.
(In general: Real-time PCR tracks product formation cycle by cycle.)

In a further data set the test system is BMP4 signaling. In words: BRE reporter assay in HEPG2 cells stimulated by BMP4. Conditions: HEPG2 cells. The data set is classed as cell-based, human. On the procedure: BRE luciferase assays were executed using 300,000 ml^−1 of HEPG2 cells in 24-well plates. PGL3-BRE-Luciferase (500 ng ml^−1) and pRL-TK-Renilla plasmids (50 ng ml^−1) were transfected using Lipofectamine 3000. After 24 hours, cells were serum starved 2 hours and stimulated 14-16 hours with 80 ng ml^−1 recombinant human BMP4 protein (R&D systems 314-BP) along with AP tagged RSPO1-4 or flag tagged RSPO1-3 conditioned medium. Luciferase activity was measured with the Dual luciferase reporter assay system (Promega E1960). Firefly luminescence (BRE) was normalized to Renilla. TOPFlash luciferase assays were carried out as previously described (Berger et al. (2017), EMBO Rep 18, 712-725, doi: 10.15252/embr.201643585). […] Statistical analyses were made with the PRISM7 software using unpaired t-test or one-way ANOVA test. Not significant (ns) P>0.05, *P<0.05, **P<0.01, ***P<0.001, and ****P<0.0001.
A general note: Reporter assays use an easily measured gene product as a stand-in for the process of interest.

Another data set has as its system Xenopus embryos. In words: Crispr-Cas9-mediated Xenopus rspo2 knockout embryos. The data set is classed as in vivo, Xenopus tropicalis.
The subject of data set [2] is THP-1 cells. Nature of the data set: THP-1 cell growth and colony formation assay. The format is cell-based, human. The settings on record: TetOn-shRSPO2 clones, Dox treatment. The protocol: as §2
1,000 cells per well of Dox-inducible THP-1 clones were seeded into 24-well plates in RPMI+10% FBS, 1% penicillin-streptomycin, 1 mM sodium pyruvate, 2 mM L-glutamine and 0.5% methylcellulose, with or without Doxycycline (1 μg ml^−1). After 8 days incubation, microscopic dark field images were taken using LEICA DMIL microscope/Canon DS126311 camera.

The subject of data set [3] is THP-1 cells. In words: THP-1 AML xenograft in NSG mice. The data set is classed as in vivo, mouse. On the procedure: For analyzing macrophage differentiation of THP-1, cells were harvested, pelleted and resuspended in ice-cold blocking buffer (PBS supplemented with 1% BSA and 0.1% NaN3). […] Isotype-matched antibodies were used as controls. Dead cells were excluded by counterstaining with propidium iodide. For analyzing apoptosis of THP-1, cells were fixed in 4% PFA, permeabilized by MeOH and blocked with PBS supplemented with 1% BSA and 0.1% Tween-20. […] FACS Samples were analyzed with FACSCalibur or FACSCanto (BD Biosciences). 10,000 events per samples were acquired, and results were processed with Cell Quest or FACSDiva software (BD Biosciences). […] For the THP-1 cell number quantification and differentiation validation in vivo, bone marrow cells were harvested from tibias of NSG mice and red blood cells were removed by ACK Lysing Buffer (Gibco A1049201). Cells were stained and analyzed as above. Here, 50,000 PI-negative events per samples were acquired.
NOD SCID gamma (NSG) mice were recruited from the Center for Preclinical Research, DKFZ, Heidelberg. […] Randomized mouse cohorts (n=6-7 mice/group) were treated with Dox or vehicle throughout the study. Treatment started 3 days prior to cell transplantation via drinking water consisting 1 mg/ml Dox and 5% saccharose, or 5% saccharose only. […] 500,000 cells in 100 μl PBS were injected intravenously into the lateral tail vein of 7-8-week-old female mice. Besides regular health checks, mouse body weight was taken twice per week throughout the experiment. Heparinized blood was collected from the tail vein at days 9 and 22 after transplantation. Terminal blood collection was performed under isoflurane anesthesia followed by cervical dislocation. Necropsies were taken as indicated or when mice reached a stop criterion of the German Society of Laboratory Animal Sciences (GV-SOLAS), until here defined as survival. All mouse experiments were in accordance with the approved guidelines of the local Governmental Committee for Animal Experimentation (RP Karlsruhe, Germany, license G140/19).
For each reaction, 25 ng genomic DNA was used. A standard curve was generated with genomic DNA extracted from NSG mice blood containing known numbers of THP-1 cells and used for converting qPCR fluorescent signals to actual cell numbers. Normal NSG mice blood and nuclease free water were used as negative controls.

The target of a further data set is T1, ALK3RD (Homo sapiens, UniProt P36894, Q233D).
T1 construct: expressed in transfected cells; host or cells: HEPG2
Nature of the data set: BRE reporter assay in HEPG2 cells with constitutively active ALK3. The data set is classed as cell-based. Conditions: RSPO treatment. The source says:
Alkaline phosphatase (AP) fusions with RSPOs (human RSPO1^ΔC-AP-pCDNA3, RSPO2^ΔC-AP-pCDNA3, RSPO2^ΔC-AP-pCS2+, RSPO3^ΔC-AP-pCDNA3, murine RSPO4^ΔC-pCDNA3) were generated by replacing the C-terminal domain (ΔC) by AP and used to produce conditioned media. Human RSPO2 wild-type (RSPO2), Furin1 and Furin2 deletion mutants (RSPO2^ΔFU), and TSP1 domain deletion mutant (RSPO2^ΔTSP) are ORFs lacking the C-terminal domain, C-terminally tagged with a Flag-tag and subcloned into pCS2+. R1-TSP^R2, R1-TSP^R2-AP and R1-TSP^R2-Flag plasmids were generated by fusion PCR and cloned in pCS2+. Conditioned media from all RSPO constructs were adjusted to equal concentration by western blot and AP activity measurement, and further validated by WNT reporter assay using HEK293T cells. The extracellular domain of ALK3 (ALK3^ECD) was subcloned in AP-pCS2+ for generating conditioned medium and used in in vitro binding assays. Constitutively active forms of ALK2,3,6 (ALK^QD) were generated by Gln-Asp mutations as described in Fujii et al. (1999), Mol Biol Cell 10, 3801-3813, doi: 10.1091/mbc.10.11.3801. HA-tagged ALK3 was a gift from Dr. D. Koinuma (Goto et al. (2007), J Biol Chem 282, 20603-20611, doi: 10.1074/jbc.M702100200). For Xenopus mRNA microinjection, Xenopus laevis BMP4-pCS2+, myc-tagged RSPO2^ΔC-myc-pCS2+, RSPO2^ΔFU-myc-pCS2+ and RSPO2^ΔTSP-myc-pCS2+ plasmids, DNALK3-pCS2+, membrane-RFP, EYFP-tagged human ALK3-pCS2+ were used for in vitro transcription. Human ZNRF3 and ZNRF3^ΔRING constructs were gifts from Dr. F. Cong (Novartis; Hao et al. (2012), Nature 485, 195-200, doi: 10.1038/nature11019), and ORFs were subcloned in flag-pCS2+ for in vitro transcription.
BRE luciferase assays were executed using 300,000 ml^−1 of HEPG2 cells in 24-well plates. PGL3-BRE-Luciferase (500 ng ml^−1) and pRL-TK-Renilla plasmids (50 ng ml^−1) were transfected using Lipofectamine 3000. […] Luciferase activity was measured with the Dual luciferase reporter assay system (Promega E1960). Firefly luminescence (BRE) was normalized to Renilla. […]

T1 sequence (P36894 24-532 Q233D): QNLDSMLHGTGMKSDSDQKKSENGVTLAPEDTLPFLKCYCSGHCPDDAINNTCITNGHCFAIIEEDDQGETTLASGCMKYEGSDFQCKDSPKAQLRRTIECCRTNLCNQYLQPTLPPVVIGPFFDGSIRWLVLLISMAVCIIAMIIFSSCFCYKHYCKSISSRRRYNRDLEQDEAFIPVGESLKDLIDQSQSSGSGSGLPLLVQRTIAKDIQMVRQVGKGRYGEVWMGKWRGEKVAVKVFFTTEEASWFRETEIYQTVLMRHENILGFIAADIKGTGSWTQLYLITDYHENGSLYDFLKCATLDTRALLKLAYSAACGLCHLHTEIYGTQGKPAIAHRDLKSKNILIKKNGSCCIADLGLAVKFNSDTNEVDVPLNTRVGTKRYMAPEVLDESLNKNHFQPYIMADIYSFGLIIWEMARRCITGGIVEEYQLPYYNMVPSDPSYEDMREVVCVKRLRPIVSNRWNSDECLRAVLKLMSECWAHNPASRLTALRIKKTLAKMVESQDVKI

As to `c1ccc2c(-c3cnn4cc(-c5ccc(N6CCNCC6)cc5)cnc34)ccnc2c1` [LDN 193189], in the data set with Smad1, the “Smad1-phosphorylation increased by RSPO2 knockdown” value was “reverted increased Smad1-phosphorylation”. The “monocyte-macrophage differentiation induced by siRSPO2” value with THP-1 cells [1] (THP-1 cells, siRSPO2 plus inhibitor) is given as “impaired monocyte-macrophage differentiation”.
As to `CN(C)c1cccc2c(S(=O)(=O)NCCCCCN)cccc12` [monodansylcadaverin, reference compound], the “effect on inhibition of BMP signaling by RSPO2” value in the data set with BMP4 signaling (BMP4+RSPO2) is on record as “eliminated inhibition of BMP signaling by RSPO2”.
Consider “gRNA: previously established guide RNA for Crispr-Cas9 rspo2 knockout, TGACTCCATAGTATCCAGGA (SEQ ID NO:11) (listed as DNA, chemistry not given here)”, for which the embryo phenotype result in the data set on Xenopus embryos was “mildly ventralized embryos”. The “BMP target gene expression” value in the data set on Xenopus embryos (sizzled in situ hybridization) is “increased BMP target gene expression”.
Consider “shRSPO2: Dox-inducible shRNA against RSPO2, SEQ ID NO:10, expressed in THP-1 clones (GACAATGGGTGTAGCCGATCTCGAGATCGGCTACACCCATTGTC)”, for which the “BMP signaling and monocyte-macrophage differentiation” value in the data set with THP-1 cells [1] (THP-1 TetOn-shRSPO2 clones, Dox-administration) is “induced BMP signaling and robust monocyte-macrophage differentiation”. Besides, in the data set with THP-1 cells [2], the THP-1 cell growth result was “reduced THP-1 cell growth” and the colony formation result was “reduced”. Besides, the “prolongation of disease-free survival” value with THP-1 cells [3] (NSG mice injected with TetOn-shRSPO2 THP-1 cell line #1, Dox induction, still alive at reporting time) is on record as “at least 2.3 fold”. The survival result in the data set on THP-1 cells [3] (NSG mice injected with TetOn-shRSPO2 THP-1 cell line #2, Dox induction) is given as “survived almost twice as long”. Moreover, in the data set with THP-1 cells [3] (NSG mice, TetOn-shRSPO2 THP-1 cells, Dox induction), the tumor burden entry is given as “reduced tumor burden”. Also, the “macrophage differentiation in bone marrow” value with THP-1 cells [3] (NSG mice, both TetOn-shRSPO2 cell lines, Dox induction) was “enhanced macrophage differentiation”.

B1: RSPO1: secreted R-spondin protein; conditioned medium or recombinant human RSPO1 (Peprotech 120-38) (protein, UniProt Q2MKA7 21-263, looked up)
R-spondin-1: SRGIKGKRQRRISAEGSQACAKGCELCSEVNGCLKCSPKLFILLERNDIRQVGVCLPSCPPGYFDARNPDMNKCIKCKIEHCEACFSHNFCTKCKEGLYLHKGRCYPACPEGSSAANGTMECSSPAQCEMSEWSPWGPCSKKQQLCGFRRGSEERTRRVLHAPVGDHAACSDTKETRRCTVRRVPCPEGQKRRKGGQGRRENANRNLARKESKEAGAGSRRRKGQQQQQQQGTVGPLTSAGPA
With B1, the “BMP signaling induced by constitutively active ALK3” value in the data set with ALK3RD is recorded as “had no effect”.

B2: RSPO3: human R-spondin 3 protein (SEQ ID NO:2); conditioned medium or recombinant (Peprotech 120-44) (protein, listed as Homo sapiens)
chain: MHLRLISWLFIILNFMEYIGSQNASRGRRQRRMHPNVSQGCQGGCATCSDYNGCLSCKPRLFFALERIGMKQIGVCLSSCPSGYYGTRYPDINKCTKCKADCDTCFNKNFCTKCKSGFYLHLGKCLDNCPEGLEANNHTMECVSIVHCEVSEWNPWSPCTKKGKTCGFKRGTETRVREIIQHPSAKGNLCPPTNETRKCTVQRKKCQKGERGKKGRERKRKKPNKGESKEAIPDSKSLESSKEIPEQRENKQQQKKRKVQDKQKSVSVSTVH
Turning to B2, the BMP4 signaling entry in the data set with BMP4 signaling (BMP4 stimulation, treatment with RSPO protein) is recorded as “decreased BMP4 signaling”. Further, the “BMP signaling induced by constitutively active ALK3” value with ALK3RD is “specifically inhibited”.
